Patent US20240408169A1 (priority 2023, published 2024)
Like-named read-outs stand apart in the source and are kept apart here. *1 amine or outer side, *2 acyl side, *3 side chain or, on linkers, in order; H or OH if unused. Where a SMILES comes first, the peptide text is derived from it. Bridges are numbered along the chain shown (N, C = ends). [ ]: non-standard residue; d: D form. The star is where a group is joined. X148 = CN([C@@H](Cc1cc(Cl)ccc1-c1ccc(S(C)(=O)=O)nc1)C(=O)[*:2])[*:1]; X197 = CN([C@@H](Cc1cc(Cl)ccc1-c1ccc(=O)[nH]c1)C(=O)[*:2])[*:1]; X166 = CN([C@@H](Cc1cc(F)ccc1C1=CC2COCC(C1)N2)C(=O)[*:2])[*:1]; X203 = CN([C@@H](Cc1cc(Cl)ccc1-c1cnn(C(F)F)c1)C(=O)[*:2])[*:1]; X147 = CCSc1ccc(-c2ccc(Cl)cc2C[C@@H](C(=O)[*:2])N(C)[*:1])cn1; X158 = CCOc1ccc(-c2ccc(Cl)cc2C[C@@H](C(=O)[*:2])N(C)[*:1])cn1; X170 = CN([C@@H](Cc1cc(Cl)ccc1-c1ccc2nonc2c1)C(=O)[*:2])[*:1]; X177 = CN([C@@H](Cc1cc(F)ccc1C1=CC2CCC(C1)N2)C(=O)[*:2])[*:1]; X183 = CN([C@@H](Cc1cc(Cl)ccc1-c1ccc2nncn2c1)C(=O)[*:2])[*:1]; X189 = CN([C@@H](Cc1cc(Cl)ccc1-c1ccc2scnc2c1)C(=O)[*:2])[*:1]; X193 = CN([C@@H](Cc1cc(Cl)ccc1-c1cnc2nonc2c1)C(=O)[*:2])[*:1]; X162 = COc1cncc(-c2ccc(Cl)cc2C[C@@H](C(=O)[*:2])N(C)[*:1])c1; X192 = COc1cccc(-c2ccc(Cl)cc2C[C@@H](C(=O)[*:2])N(C)[*:1])c1; NMehhhLys(Me) = CN([C@@H](CCCCCCCN(C)[*:3])C(=O)[*:2])[*:1]; X125 = CN([C@@H](Cc1cc(Cl)ccc1-c1cncc(F)c1)C(=O)[*:2])[*:1]; cBuCO(3,3-F2-1-CF3) = O=C(C1(C(F)(F)F)CC(F)(F)C1)*; Pro(trans-4-F) = O=C(O)[C@@H]1C[C@@H](F)CN1; Gly(cPr) = N[C@H](C(=O)O)C1CC1

Assays:
CyclinA2/CDK2 = molecular target: T1, CyclinA2/CDK2 (Homo sapiens, UniProt P20248); experiment: Fluorescence Polarization (FP) competitive binding assay, Cyclin A2/Cdk2;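 also: plates equilibrated two hours at room temperature before polarization reading, IC50 fitted from eight-concentration compound titration curves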
T1 construct: purchased CRELUX Protein Services

NCI-H1048 cells = experiment: MTT proliferation assay, NCI-H1048; assay type: cell-based; conditions: 5 days compound exposure, 1:3 serial dilution starting at 10 μM;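 also: Dose-response in 96-well plates over 8 or 10 concentration points, with exposure spanning 3-4 cell doublings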
OVCAR3 cells = experiment: MTT proliferation assay, OVCAR3; assay type: cell-based; conditions: 5 days compound exposure, 1:3 serial dilution starting at 10 μM;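 also: compound given as an 8- or 10-point series, one day after plating, with exposure covering roughly 3-4 cell doublings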
CyclinE1/CDK2 = molecular target: T2, CyclinE1/CDK2 (Homo sapiens, UniProt P24864); experiment: Fluorescence Polarization (FP) competitive binding assay, Cyclin E1/Cdk2;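 also: readings taken after two-hour equilibration at room temperature in HEPES buffer with NaCl, DTT, NP-40 and BSA, IC50 fitted from eight-concentration serial dilution series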
T2 construct: purchased Eurofins, discovery 14-475

CyclinB1/CDK1 = molecular target: T3, CyclinB1/CDK1 (Homo sapiens, UniProt P14635); experiment: Fluorescence Polarization (FP) competitive binding assay, Cyclin B1/Cdk1;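 also: fluorescence polarization read after equilibration at room temperature, with IC50 taken from serially diluted dose-response curves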
T3 construct: purchased Eurofins, discovery 14-450

[1] = 8 nM Cyclin A2/Cdk2, 2 nM FAM probe, average of 2-3 independent experiments, read-out: Cyclin A FP IC50
[2] = 10 nM Cyclin E1/Cdk2, 2 nM FAM probe, average of 2-3 independent experiments, read-out: Cyclin E FP IC50
[3] = 10 nM Cyclin B1/Cdk1, 2 nM FAM probe; average of 2-3 independent experiments; read-out: Cyclin B FP IC50

Row | Structure (SMILES) | IC50 (CyclinA2/CDK2; [1]) | GI50 (NCI-H1048 cells) | GI50 (OVCAR3 cells) | IC50 (CyclinE1/CDK2; [2]) | IC50 (CyclinB1/CDK1; [3]) | IC50 (CyclinA2/CDK2) | IC50 (CyclinE1/CDK2) | IC50 (CyclinB1/CDK1; read-out: Cyclin B FP IC50; 10 nM Cyclin B1/Cdk1, 2 nM FAM probe; average of 2-3 independent experiments)
1 | CC(C)C[C@@H]1NC(=O)[C@@H](N(C)C(=O)[C@@H](NC(=O)[C@@H]2C[C@@H](F)CN2C(=O)C2(C(F)(F)F)CC(F)(F)C2)C2CC2)CCCCCCCN(C)C(=O)[C@H](Cc2cc(F)ccc2C2=CC3CCC(C2)N3)N(C)C1=O (stereo partly drawn) [Example 165, (2S,4R)—N-((1S)-2-(((3S,6S,9S)-3-(2-(8-azabicyclo[3.2.1]oct-2-en-3-yl)-5-fluorobenzyl)-6-isobutyl-1,4-dimethyl-2,5,8-trioxo-1,4,7-triazacyclohexadecan-9-yl)(methyl)amino)-1-cyclopropyl-2-oxoethyl)-1-(3,3-difluoro-1-(trifluoromethyl)cyclobutane-1-carbonyl)-4-fluoropyrrolidine-2-carboxamide] ({cBuCO(3,3-F2-1-CF3)}-[Pro(trans-4-F)][Gly(cPr)][NMehhhLys(Me)]L[X177]; lactam 3-C) | 110 nM | 340 nM | 1670 nM | 5470 nM | 20 nM |  |  | 
2 | CC(C)C[C@@H]1NC(=O)[C@@H](N(C)C(=O)[C@@H](NC(=O)[C@@H]2C[C@@H](F)CN2C(=O)C2(C(F)(F)F)CC(F)(F)C2)C2CC2)CCCCCCCN(C)C(=O)[C@H](Cc2cc(F)ccc2C2=CC3COCC(C2)N3)N(C)C1=O (stereo partly drawn) [Example 166] ({cBuCO(3,3-F2-1-CF3)}-[Pro(trans-4-F)][Gly(cPr)][NMehhhLys(Me)]L[X166]; lactam 3-C) | 60 nM | 40 nM | 100 nM | 2300 nM | 20 nM |  |  | 
3 | CC(C)C[C@@H]1NC(=O)[C@@H](N(C)C(=O)[C@@H](NC(=O)[C@@H]2C[C@@H](F)CN2C(=O)C2(C(F)(F)F)CC(F)(F)C2)C2CC2)CCCCCCCN(C)C(=O)[C@H](Cc2cc(Cl)ccc2-c2ccc3scnc3c2)N(C)C1=O [Example 169] ({cBuCO(3,3-F2-1-CF3)}-[Pro(trans-4-F)][Gly(cPr)][NMehhhLys(Me)]L[X189]; lactam 3-C) | 30 nM | 20 nM | 30 nM | 1090 nM | 20 nM |  |  | 
4 | CC(C)C[C@@H]1NC(=O)[C@@H](N(C)C(=O)[C@@H](NC(=O)[C@@H]2C[C@@H](F)CN2C(=O)C2(C(F)(F)F)CC(F)(F)C2)C2CC2)CCCCCCCN(C)C(=O)[C@H](Cc2cc(Cl)ccc2-c2ccc3nonc3c2)N(C)C1=O [Example 170] ({cBuCO(3,3-F2-1-CF3)}-[Pro(trans-4-F)][Gly(cPr)][NMehhhLys(Me)]L[X170]; lactam 3-C) | 50 nM | 130 nM | 200 nM | 2220 nM | 20 nM |  |  | 
5 | CC(C)C[C@@H]1NC(=O)[C@@H](N(C)C(=O)[C@@H](NC(=O)[C@@H]2C[C@@H](F)CN2C(=O)C2(C(F)(F)F)CC(F)(F)C2)C2CC2)CCCCCCCN(C)C(=O)[C@H](Cc2cc(Cl)ccc2-c2cnc3nonc3c2)N(C)C1=O [Example 171] ({cBuCO(3,3-F2-1-CF3)}-[Pro(trans-4-F)][Gly(cPr)][NMehhhLys(Me)]L[X193]; lactam 3-C) | 80 nM | 150 nM | 210 nM | 4210 nM | 20 nM |  |  | 
6 | CC(C)C[C@@H]1NC(=O)[C@@H](N(C)C(=O)[C@@H](NC(=O)[C@@H]2C[C@@H](F)CN2C(=O)C2(C(F)(F)F)CC(F)(F)C2)C2CC2)CCCCCCCN(C)C(=O)[C@H](Cc2cc(Cl)ccc2-c2ccc3nncn3c2)N(C)C1=O [Example 178] ({cBuCO(3,3-F2-1-CF3)}-[Pro(trans-4-F)][Gly(cPr)][NMehhhLys(Me)]L[X183]; lactam 3-C) | 50 nM | 1180 nM | 2570 nM | 5460 nM | 20 nM |  |  | 
7 | CC(C)C[C@@H]1NC(=O)[C@@H](N(C)C(=O)[C@@H](NC(=O)[C@@H]2C[C@@H](F)CN2C(=O)C2(C(F)(F)F)CC(F)(F)C2)C2CC2)CCCCCCCN(C)C(=O)[C@H](Cc2cc(Cl)ccc2-c2ccc(=O)[nH]c2)N(C)C1=O [Example 180] ({cBuCO(3,3-F2-1-CF3)}-[Pro(trans-4-F)][Gly(cPr)][NMehhhLys(Me)]L[X197]; lactam 3-C) | 30 nM | 730 nM | 1220 nM | 1860 nM | 20 nM |  |  | 
8 | CCSc1ccc(-c2ccc(Cl)cc2C[C@H]2C(=O)N(C)CCCCCCC[C@H](N(C)C(=O)[C@@H](NC(=O)[C@@H]3C[C@@H](F)CN3C(=O)C3(C(F)(F)F)CC(F)(F)C3)C3CC3)C(=O)N[C@@H](CC(C)C)C(=O)N2C)cn1 [Example 181] ({cBuCO(3,3-F2-1-CF3)}-[Pro(trans-4-F)][Gly(cPr)][NMehhhLys(Me)]L[X147]; lactam 3-C) | 40 nM | 240 nM | 420 nM | 1580 nM | 20 nM |  |  | 
9 | CCOc1ccc(-c2ccc(Cl)cc2C[C@H]2C(=O)N(C)CCCCCCC[C@H](N(C)C(=O)[C@@H](NC(=O)[C@@H]3C[C@@H](F)CN3C(=O)C3(C(F)(F)F)CC(F)(F)C3)C3CC3)C(=O)N[C@@H](CC(C)C)C(=O)N2C)cn1 [Example 182] ({cBuCO(3,3-F2-1-CF3)}-[Pro(trans-4-F)][Gly(cPr)][NMehhhLys(Me)]L[X158]; lactam 3-C) | 20 nM | 60 nM | 130 nM | 1170 nM | 20 nM |  |  | 
10 | CC(C)C[C@@H]1NC(=O)[C@@H](N(C)C(=O)[C@@H](NC(=O)[C@@H]2C[C@@H](F)CN2C(=O)C2(C(F)(F)F)CC(F)(F)C2)C2CC2)CC=CCCCCNC(=O)[C@H](Cc2cc(F)ccc2-c2cnn(C)c2)N(C)C1=O [Example 195] | 40 nM | 10 nM | 10 nM | 180 nM | 20 nM |  |  | 
11 | COc1cccc(-c2ccc(Cl)cc2C[C@H]2C(=O)N(C)CCCCCCC[C@H](N(C)C(=O)[C@@H](NC(=O)[C@@H]3C[C@@H](F)CN3C(=O)C3(C(F)(F)F)CC(F)(F)C3)C3CC3)C(=O)N[C@@H](CC(C)C)C(=O)N2C)c1 [Example 197] ({cBuCO(3,3-F2-1-CF3)}-[Pro(trans-4-F)][Gly(cPr)][NMehhhLys(Me)]L[X192]; lactam 3-C) | 20 nM | 50 nM | 100 nM | 310 nM | 20 nM |  |  | 
12 | CC(C)C[C@@H]1NC(=O)[C@@H](N(C)C(=O)[C@@H](NC(=O)[C@@H]2C[C@@H](F)CN2C(=O)C2(C(F)(F)F)CC(F)(F)C2)C2CC2)CCCCCCCN(C)C(=O)[C@H](Cc2cc(Cl)ccc2-c2cncc(F)c2)N(C)C1=O [Example 198] ({cBuCO(3,3-F2-1-CF3)}-[Pro(trans-4-F)][Gly(cPr)][NMehhhLys(Me)]L[X125]; lactam 3-C) | 50 nM | 50 nM | 50 nM | 1450 nM | 20 nM |  |  | 
13 | COc1cncc(-c2ccc(Cl)cc2C[C@H]2C(=O)N(C)CCCCCCC[C@H](N(C)C(=O)[C@@H](NC(=O)[C@@H]3C[C@@H](F)CN3C(=O)C3(C(F)(F)F)CC(F)(F)C3)C3CC3)C(=O)N[C@@H](CC(C)C)C(=O)N2C)c1 [Example 199] ({cBuCO(3,3-F2-1-CF3)}-[Pro(trans-4-F)][Gly(cPr)][NMehhhLys(Me)]L[X162]; lactam 3-C) | 30 nM | 30 nM | 50 nM | 910 nM | 20 nM |  |  | 
14 | CC(C)C[C@@H]1NC(=O)[C@@H](N(C)C(=O)[C@@H](NC(=O)[C@@H]2C[C@@H](F)CN2C(=O)C2(C(F)(F)F)CC(F)(F)C2)C2CC2)CCCCCCCN(C)C(=O)[C@H](Cc2cc(Cl)ccc2-c2cnn(C(F)F)c2)N(C)C1=O [Example 200] ({cBuCO(3,3-F2-1-CF3)}-[Pro(trans-4-F)][Gly(cPr)][NMehhhLys(Me)]L[X203]; lactam 3-C) | 30 nM | 40 nM | 30 nM | 890 nM | 20 nM |  |  | 
15 | CC(C)C[C@@H]1NC(=O)[C@@H](N(C)C(=O)[C@@H](NC(=O)[C@@H]2C[C@@H](F)CN2C(=O)C2(C(F)(F)F)CC(F)(F)C2)C2CC2)CCCCCCCN(C)C(=O)[C@H](Cc2cc(Cl)ccc2-c2ccc(S(C)(=O)=O)nc2)N(C)C1=O [Example 201] ({cBuCO(3,3-F2-1-CF3)}-[Pro(trans-4-F)][Gly(cPr)][NMehhhLys(Me)]L[X148]; lactam 3-C) |  | 60 nM | 60 nM |  |  | 30 nM | 1950 nM | 20 nM
